As a reminder, the EC50 is the concentration giving half of the maximal effect. In general, Emax refers to the maximal effect, on the per cent scale that the assay sets.

Each structure is given as a SMILES string.

For the test, the target named is human F508del-CFTR (Homo sapiens, UniProt P13569, DEL508-508). Description: F508del-CFTR cell surface expression (corrector activity), DiscoveRx ß-galactosidase complementation chemiluminescence assay in recombinant U2OS cell line.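 For all read-outs here: U2OS cells co-expressing ProLink-tagged F508del-CFTR and a membrane-anchored enzyme acceptor, where more surface CFTR restores β-galactosidase activity measured by chemiluminescence.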 The settings on record: U2OS cell line, 16h compound incubation; for EC50: EC50, F508del-CFTR cell surface expression, geomean values; for Emax: U2OS, in relation to the Emax of the corrector lumacaftor (=100%), arithmetic mean values.
Chain of human F508del-CFTR (P13569 with tags, fused parts or gaps DEL508-508): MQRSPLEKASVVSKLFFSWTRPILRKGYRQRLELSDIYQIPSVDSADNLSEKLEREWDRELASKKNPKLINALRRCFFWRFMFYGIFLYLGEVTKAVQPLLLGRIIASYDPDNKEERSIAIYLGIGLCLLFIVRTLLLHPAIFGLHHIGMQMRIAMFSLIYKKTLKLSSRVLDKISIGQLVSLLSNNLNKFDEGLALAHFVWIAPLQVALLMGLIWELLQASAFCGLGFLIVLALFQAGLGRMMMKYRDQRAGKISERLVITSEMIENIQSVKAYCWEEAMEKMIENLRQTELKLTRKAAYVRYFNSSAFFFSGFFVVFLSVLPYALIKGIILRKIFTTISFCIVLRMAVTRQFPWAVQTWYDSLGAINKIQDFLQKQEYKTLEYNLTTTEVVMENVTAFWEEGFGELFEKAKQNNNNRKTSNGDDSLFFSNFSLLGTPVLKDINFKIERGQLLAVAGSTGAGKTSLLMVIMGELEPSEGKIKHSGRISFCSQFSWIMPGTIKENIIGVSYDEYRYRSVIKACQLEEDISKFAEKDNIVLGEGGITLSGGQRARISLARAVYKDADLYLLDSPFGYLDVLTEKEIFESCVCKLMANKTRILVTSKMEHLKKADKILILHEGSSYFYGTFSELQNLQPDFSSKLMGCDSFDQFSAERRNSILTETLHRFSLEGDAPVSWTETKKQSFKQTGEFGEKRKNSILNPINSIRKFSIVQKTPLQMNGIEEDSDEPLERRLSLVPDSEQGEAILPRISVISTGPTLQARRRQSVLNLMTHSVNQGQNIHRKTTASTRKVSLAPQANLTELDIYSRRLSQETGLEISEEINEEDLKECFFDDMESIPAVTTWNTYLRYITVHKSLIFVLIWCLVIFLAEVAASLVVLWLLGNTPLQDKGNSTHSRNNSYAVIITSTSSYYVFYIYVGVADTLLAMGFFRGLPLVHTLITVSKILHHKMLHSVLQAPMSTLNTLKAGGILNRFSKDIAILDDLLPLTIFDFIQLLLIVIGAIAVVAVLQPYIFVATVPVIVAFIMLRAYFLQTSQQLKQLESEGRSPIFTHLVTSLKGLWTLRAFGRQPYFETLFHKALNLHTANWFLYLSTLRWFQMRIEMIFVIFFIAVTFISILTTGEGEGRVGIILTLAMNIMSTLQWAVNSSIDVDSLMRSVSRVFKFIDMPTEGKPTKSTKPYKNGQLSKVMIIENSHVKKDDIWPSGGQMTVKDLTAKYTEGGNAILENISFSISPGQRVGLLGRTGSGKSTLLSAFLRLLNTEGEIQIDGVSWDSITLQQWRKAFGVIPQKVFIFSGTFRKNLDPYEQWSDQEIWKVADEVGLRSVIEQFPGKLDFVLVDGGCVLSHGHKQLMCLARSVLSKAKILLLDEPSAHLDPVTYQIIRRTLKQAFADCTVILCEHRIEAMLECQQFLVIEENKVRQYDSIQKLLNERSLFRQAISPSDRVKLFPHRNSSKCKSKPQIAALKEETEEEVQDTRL

Turning to `COc1cccc2c1C(=O)N[C@H](C(=O)NCCc1ccc(-n3cccn3)cc1)CC(=O)N(C)[C@@H](CC(C)C)C(=O)N(CCC1CCCCC1)CC(=O)N[C@H](Cc1ccccc1)CO2` [Example 217, (3R,9S,13S)-N-(4-(1H-pyrazol-1-yl)phenethyl)-3-benzyl-7-(2-cyclohexylethyl)-9-isobutyl-16-methoxy-10-methyl-5,8,11,15-tetraoxo-2,3,4,5,6,7,8,9,10,11,12,13,14,15-tetradecahydrobenzo[p][1]oxa[4,7,10,14]tetraazacycloheptadecine-13-carboxamide], the EC50 stood at 202 nM and the maximal response (Emax) is 135%.

On to `COc1cc(CCNC(=O)[C@@H]2CC(=O)N(C)[C@@H](CC(C)C)C(=O)N(CCC3CCCCC3)CC(=O)N[C@H](Cc3ccccc3)COc3cccc(OC)c3C(=O)N2)ccc1N` [Example 218, (3R,9S,13S)-N-(4-amino-3-methoxyphenethyl)-3-benzyl-7-(2-cyclohexylethyl)-9-isobutyl-16-methoxy-10-methyl-5,8,11,15-tetraoxo-2,3,4,5,6,7,8,9,10,11,12,13,14,15-tetradecahydrobenzo[p][1]oxa[4,7,10,14]tetraazacycloheptadecine-13-carboxamide], for which the EC50 was 353 nM and the maximum response (Emax) came out at 143%.

For the compound `COc1cccc(CCNC(=O)[C@@H]2CC(=O)N(C)[C@@H](CC(C)C)C(=O)N(CCC3CCCCC3)CC(=O)N[C@H](Cc3ccccc3)COc3cccc(OC)c3C(=O)N2)n1` [Example 220, (3R,9S,13S)-3-benzyl-7-(2-cyclohexylethyl)-9-isobutyl-16-methoxy-N-(2-(6-methoxypyridin-2-yl)ethyl)-10-methyl-5,8,11,15-tetraoxo-2,3,4,5,6,7,8,9,10,11,12,13,14,15-tetradecahydrobenzo[p][1]oxa[4,7,10,14]tetraazacycloheptadecine-13-carboxamide], the EC50 amounted to 258 nM and the maximal response (Emax) was determined as 103%.

As for `CC(C)C[C@H]1C(=O)N2CCOC[C@@H]2C(=O)N[C@H](Cc2ccccc2)COc2cnc3ccccc3c2C(=O)N[C@H](C(=O)NCCc2cc(C(F)(F)F)no2)CC(=O)N1C` [Example 221, (9S,13S,19aR,22R)-22-benzyl-13-isobutyl-12-methyl-7,11,14,20-tetraoxo-N-(2-(3-(trifluoromethyl)isoxazol-5-yl)ethyl)-7,8,9,10,11,12,13,14,16,17,19,19a,20,21,22,23-hexadecahydro-[1,4]oxazino[3′,4′:6,7][1]oxa[4,7,10,14]tetraazacycloheptadecino[17,16-c]quinoline-9-carboxamide], the EC50 is 833 nM and the Emax came out at 229%.

As for `COc1cccc(CCNC(=O)[C@@H]2CC(=O)N(C)[C@@H](CC(C)C)C(=O)N3CCOC[C@@H]3C(=O)N[C@H](Cc3ccccc3)COc3ccc4ccccc4c3C(=O)N2)c1` [Example 222, (4aR,7R,18S,22S)-7-Benzyl-22-isobutyl-N-(3-methoxyphenethyl)-21-methyl-5,16,20,23-tetraoxo-1,2,4,4a,5,6,7,8,16,17,18,19,20,21,22,23-hexadecahydronaphtho[1,2-p][1,4]oxazino[3,4-f][1]oxa[4,7,10,14]tetraazacycloheptadecine-18-carboxamide], the EC50 is 216 nM and the Emax was 249%.

`CC(C)C[C@H]1C(=O)N(C)CC(=O)N[C@H](Cc2ccccc2)COc2cc3c(cc2C(=O)N[C@H](C(=O)NCCc2ccc4c(c2)OCO4)CC(=O)N1C)OCO3` [Example 223, (7R,13S,17S)-N-(2-(benzo[d][1,3]dioxol-5-yl)ethyl)-7-benzyl-13-isobutyl-11,14-dimethyl-9,12,15,19-tetraoxo-6,7,8,9,10,11,12,13,14,15,16,17,18,19-tetradecahydro-[1,3]dioxolo[4′,5′:4,5]benzo[1,2-p][1]oxa[4,7,10,14]tetraazacycloheptadecine-17-carboxamide]: the EC50 was 388 nM and the Emax amounted to 141%.

On to `COc1cccc(CCNC(=O)[C@@H]2CC(=O)N(C)[C@@H](CC(C)C)C(=O)N(C)CC(=O)N[C@H](Cc3ccccc3)COc3cc4c(cc3C(=O)N2)OCO4)c1` [Example 224, (7R,13S,17S)-7-benzyl-13-isobutyl-N-(3-methoxyphenethyl)-11,14-dimethyl-9,12,15,19-tetraoxo-6,7,8,9,10,11,12,13,14,15,16,17,18,19-tetradecahydro-[1,3]dioxolo[4′,5′:4,5]benzo[1,2-p][1]oxa[4,7,10,14]tetraazacycloheptadecine-17-carboxamide], for which the EC50 came out at 340 nM and the Emax turned out to be 144%.

Regarding `CCOc1cccc(CCNC(=O)[C@@H]2CC(=O)N(C)[C@@H](CC(C)C)C(=O)N(C)CC(=O)N[C@H](Cc3ccccc3)COc3cc4c(cc3C(=O)N2)OCO4)c1` [Example 225, (7R,13S,17S)-7-benzyl-N-(3-ethoxyphenethyl)-13-isobutyl-11,14-dimethyl-9,12,15,19-tetraoxo-6,7,8,9,10,11,12,13,14,15,16,17,18,19-tetradecahydro-[1,3]dioxolo[4′,5′:4,5]benzo[1,2-p][1]oxa[4,7,10,14]tetraazacycloheptadecine-17-carboxamide], the EC50 worked out at 191 nM and the maximum response (Emax) amounted to 110%.

Turning to `CC(C)C[C@H]1C(=O)N(C)CC(=O)N[C@H](Cc2ccccc2)COc2cc3c(cc2C(=O)N[C@H](C(=O)NCCc2ccc4c(c2)OCCO4)CC(=O)N1C)OCO3` [Example 226, (7R,13S,17S)-7-benzyl-N-(2-(2,3-dihydrobenzo[b][1,4]dioxin-6-yl)ethyl)-13-isobutyl-11,14-dimethyl-9,12,15,19-tetraoxo-6,7,8,9,10,11,12,13,14,15,16,17,18,19-tetradecahydro-[1,3]dioxolo[4′,5′:4,5]benzo[1,2-p][1]oxa[4,7,10,14]tetraazacycloheptadecine-17-carboxamide], the EC50 was 520 nM and the Emax worked out at 213%.

Turning to `CCc1ccc(CCNC(=O)[C@@H]2CC(=O)N(C)[C@@H](CC(C)C)C(=O)N(C)CC(=O)N[C@H](Cc3ccccc3)COc3cc4c(cc3C(=O)N2)OCO4)cc1` [Example 227, (7R,13S,17S)-7-benzyl-N-(4-ethylphenethyl)-13-isobutyl-11,14-dimethyl-9,12,15,19-tetraoxo-6,7,8,9,10,11,12,13,14,15,16,17,18,19-tetradecahydro-[1,3]dioxolo[4′,5′:4,5]benzo[1,2-p][1]oxa[4,7,10,14]tetraazacycloheptadecine-17-carboxamide], the EC50 was 290 nM and the Emax came out at 103%.

As to `COc1ccc2c(c1)C(=O)N[C@H](C(=O)NCCc1ccc3c(c1)OCO3)CC(=O)N(C)[C@@H](CC(C)C)C(=O)N(C)CC(=O)N[C@H](Cc1ccccc1)CO2` [Example 228, (3R,9S,13S)-N-(2-(benzo[d][1,3]dioxol-5-yl)ethyl)-3-benzyl-9-isobutyl-17-methoxy-7,10-dimethyl-5,8,11,15-tetraoxo-2,3,4,5,6,7,8,9,10,11,12,13,14,15-tetradecahydrobenzo[p][1]oxa[4,7,10,14]tetraazacycloheptadecine-13-carboxamide], the half-maximal effective concentration (EC50) is 460 nM and the Emax amounted to 190%.

For `Cc1ccc2c(c1)C(=O)N[C@H](C(=O)NCCc1ccc3c(c1)OCO3)CC(=O)N(C)[C@@H](CC(C)C)C(=O)N(C)CC(=O)N[C@H](Cc1ccccc1)CO2` [Example 229, (3R,9S,13S)-N-(2-(benzo[d][1,3]dioxol-5-yl)ethyl)-3-benzyl-9-isobutyl-7,10,17-trimethyl-5,8,11,15-tetraoxo-2,3,4,5,6,7,8,9,10,11,12,13,14,15-tetradecahydrobenzo[p][1]oxa[4,7,10,14]tetraazacycloheptadecine-13-carboxamide], the EC50 amounted to 279 nM and the Emax was found to be 117%.

Take `COc1cccc(CCNC(=O)[C@@H]2CC(=O)N(C)[C@@H](CC(C)C)C(=O)N(C)CC(=O)N[C@H](Cc3ccccc3)COc3ccc(C)cc3C(=O)N2)c1` [Example 230, (3R,9S,13S)-3-benzyl-9-isobutyl-N-(3-methoxyphenethyl)-7,10,17-trimethyl-5,8,11,15-tetraoxo-2,3,4,5,6,7,8,9,10,11,12,13,14,15-tetradecahydrobenzo[p][1]oxa[4,7,10,14]tetraazacycloheptadecine-13-carboxamide]: the EC50 was determined as 482 nM and the maximum response (Emax) was 103%.

In the case of `COc1cccc(CCNC(=O)[C@@H]2CC(=O)N(C)[C@@H](CC(C)C)C(=O)N(C)CC(=O)N[C@H](Cc3ccccc3)COc3ccc(OC)cc3C(=O)N2)c1` [Example 231, (3R,9S,13S)-3-benzyl-9-isobutyl-17-methoxy-N-(3-methoxyphenethyl)-7,10-dimethyl-5,8,11,15-tetraoxo-2,3,4,5,6,7,8,9,10,11,12,13,14,15-tetradecahydrobenzo[p][1]oxa[4,7,10,14]tetraazacycloheptadecine-13-carboxamide], the 50% effective concentration (EC50) turned out to be 592 nM and the maximal effect (Emax) was determined as 173%.

In the case of `COc1cccc(CCNC(=O)[C@@H]2CC(=O)N(C)[C@@H](CC(C)C)C(=O)N(C)CC(=O)N[C@H](Cc3ccccc3)COc3cc(OC)ccc3C(=O)N2)c1` [Example 232, (3R,9S,13S)-3-benzyl-9-isobutyl-18-methoxy-N-(3-methoxyphenethyl)-7,10-dimethyl-5,8,11,15-tetraoxo-2,3,4,5,6,7,8,9,10,11,12,13,14,15-tetradecahydrobenzo[p][1]oxa[4,7,10,14]tetraazacycloheptadecine-13-carboxamide], the EC50 was 526 nM and the Emax came out at 105%.

With `COc1cccc(CCNC(=O)[C@@H]2CC(=O)N(C)[C@@H](CC(C)C)C(=O)N(C)CC(=O)N[C@H](Cc3ccccc3)COc3cc(C)ccc3C(=O)N2)c1` [Example 233, (3R,9S,13S)-3-benzyl-9-isobutyl-N-(3-methoxyphenethyl)-7,10,18-trimethyl-5,8,11,15-tetraoxo-2,3,4,5,6,7,8,9,10,11,12,13,14,15-tetradecahydrobenzo[p][1]oxa[4,7,10,14]tetraazacycloheptadecine-13-carboxamide], the EC50 came to 610 nM and the Emax came to 92%.

These data come from US20240208992A1, “MACROCYCLES AS CFTR MODULATORS” (Idorsia Pharmaceuticals Ltd, priority 2021, published 2024).
